Assays:
[1] = system: IL-8 production in Caco-2 cells; assay: IL-8 production in Caco-2 monolayer cells stimulated with IFN-γ and TNF-α (ELISA); format: cell-based, human; conditions: 50 μM, IFN-γ and TNF-α stimulation, outer side culture medium 6 hr after TNF-α addition, FIG. 3A
Experimental: (§1) Caco-2 cells were placed in a 75 cm^2 tissue culture flask, and cultured up to about 80% confluence at 37° C. The cells were inoculated in a 12-well transwell (Transwell (registered trade mark)) cell culture chamber (permeable membrane; diameter 12 mm, pore size 0.4 μm) at a cell concentration of 2×10^5 cells/cm^2, and cultured at 37° C. for 14 days under 5% CO2 atmosphere to give Caco-2 monolayer cells. Furthermore, to verify whether or not tight junction is sufficiently formed, Caco-2 monolayer cells having transepithelial electrical resistance (TER) of about 900-1,000 Ωcm^2 or more were used for the assay. […]
(§2) To the inner side culture medium of each well of the Caco-2 monolayer cells prepared by the aforementioned method was added a solution of HYA, HYB, KetoA, KetoB or KetoC (each 50 μM concentration, 500 μL), and the mixture was cultured for 24 hr. […] TNF-α was added to 50 ng/mL, the mixture was further cultured for 6 hr, and the below-mentioned intestinal tract barrier protection effect was evaluated. […]
(§3) The intestinal tract barrier protection effect by test fatty acid solution was compared using transepithelial electrical resistance (TER) value (Ω·cm^2) and IL-8 production (pg/mL) as indices. With a resistance value measurement system (Millicell-ERS, Millipore) using an Ag/AgCl electrode, each TER value at 0, 1, 2, 3, 4, 5 and 6 hr after addition of TNF-α was measured. […]

[2] = system: Caco-2 monolayer cells; assay: Intestinal tract barrier protection: transepithelial electrical resistance (TER) of Caco-2 monolayer cells stimulated with IFN-γ and TNF-α; format: cell-based, human; conditions: 50 μM test fatty acid 24 hr, then IFN-γ 50 ng/mL 24 hr, TNF-α 50 ng/mL, 0-6 hr; FIG. 2
Experimental: as §1, §2, §3

[3] = system: tight junction-related factors in large intestinal tissues; assay: Gene expression of tight junction-related factors in large intestinal tissues of DSS-induced enteritis model mouse (real-time PCR); format: in vivo, BALB/c mice; conditions: oral 100 nmol/day, FIG. 10
Experimental: (§4) BALB/c mice (♀, 6-week-old) were purchased from Charles River Japan (Kanagawa, Japan), and all experiment plans were carried out in accordance with Hiroshima University, Animal Experiment Rule (No. C10-17). Acute colitis was induced by allowing free intake of 3.5% (w/v) DSS (molecular weight 36000-50000; MP Biomedicals, Aurora, Ohio, USA) for 5 days. To evaluate the effect of HYA and HYB on large intestine, 100 μL of a suspension of HYA or HYB (each 100 nmol) was orally administered to the mice. This administration was performed every day for total 10 days, for 5 days before DSS administration and 5 days after the start of the administration. The symptoms of colitis were evaluated every day based on a decrease in body weight, condition of feces and bleeding from the anus. After administration of DSS for 5 days, the mouse was sacrificed, and the length of the large intestine was measured. Thereafter, RNA was extracted from the large intestine tissue by using RNeasy Mini Kit (Qiagen, Maryland, Md., USA). Paraffin section (7 μm) of the large intestine tissue was produced, stained with hematoxylin-eosin, and histochemically evaluated. The extracted RNA was reverse-transcribed using a high-capacity cDNA reverse transcription kit (Life Technologies) to give cDNA, and real-time PCR analysis was performed using a KAPA SYBR FAST ABI PRISM qPCR kit (Kapa Biosystems). As the primer, oligoDNA pairs of nucleotide sequences were used: SEQ ID NOs: 5 and 6 for Claudin-1, SEQ ID NOs: 13 and 14 for Claudin-3, SEQ ID NOs: 15 and 16 for Claudin-4, SEQ ID NOs: 7 and 8 for ZO-1, SEQ ID NOs: 17 and 18 for ZO-2, SEQ ID NOs: 9 and 10 for Occludin, and SEQ ID NOs: 11 and 12 for MLCK.

[4] = system: tight junction-related factors (MLCK, occludin) in Caco-2 monolayer cells; assay: Gene expression of tight junction-related factors in Caco-2 monolayer cells (real-time PCR); format: cell-based, human; conditions: IFN-γ and TNF-α, 6 hr, FIG. 4
Experimental: (§5) To the inner side culture medium of each well of the Caco-2 monolayer cells prepared by the aforementioned method was added a solution of HYA, HYB, KetoA, KetoB or KetoC (each 50 μM concentration, 500 μL), and the mixture was cultured for 24 hr. Then, IFN-γ was added to the outer side culture medium to the final concentration of 50 ng/mL and, after culture for 24 hr, the outer side medium was once removed. TNF-α was added to 50 ng/mL, the mixture was further cultured for 6 hr, and the below-mentioned intestinal tract barrier protection effect was evaluated. Also, a well free of test fatty acid and added with IFN-γ and TNF-α, and a well free of test fatty acid solution, IFN-γ and TNF-α (hereinafter to be also referred to as control) were prepared.
(§6) In the same manner as in the aforementioned Example, HYA was added and, 6 hr later, the Caco-2 monolayer cells were washed 3 times with PBS, and RNA was extracted with TRIzol (registered trade mark) (manufactured by Life Technologies) from the cells. RNA was reverse-transcribed using a high-capacity cDNA reverse transcription kit (Life Technologies) to give cDNA, and real-time PCR analysis was performed using KAPA SYBR FAST ABI PRISM qPCR kit (Kapa Biosystems). […]

[5] = system: IL-8 mRNA in Caco-2 cells; assay: IL-8 mRNA expression in Caco-2 monolayer cells (real-time PCR); format: cell-based, human; conditions: IFN-γ and TNF-α, FIG. 3B
Experimental: as §5, §6

[6] = system: DSS-induced enteritis model mouse; assay: Dextran sodium sulfate (DSS)-induced enteritis model mouse: body weight, feces, large intestine length, histology; format: in vivo, BALB/c mice; conditions: 100 nmol orally every day for 10 days, 3.5% DSS for 5 days
Experimental: as §4

Structure (SMILES): CCCCC/C=C\CC(O)CCCCCCCCC(=O)O (stereo not drawn) [HYA, 10-hydroxy-cis-12-octadecenoic acid]
- IL-8 production [1]: suppression of IL-8 production was observed
- TER relative value (Relative TER) [2]: showed suppression of a decrease in the TER relative value
- mRNA expression of MLCK in large intestine tissue ([3]; compared to the DSS mouse): significant recovery of the mRNA expression of occludin and MLCK
- mRNA expression of occludin in large intestine tissue ([3]; compared to the DSS mouse): significant recovery of the mRNA expression of occludin and MLCK
- mRNA expression of MLCK [4]: suppression of an increase in the mRNA expression of MLCK
- mRNA expression of occludin [4]: suppression of an increase in the mRNA expression of MLCK and a decrease in the mRNA expression of occludin
- mRNA expression of IL-8 [5]: suppressed such increase in the expression
- weight loss ([6]; FIG. 5, 6): effective for the suppression of weight loss
- stool score ([6]; FIG. 7): recovery of stool score
- length of large intestine ([6]; FIG. 8): protection of large intestine
- histochemical evaluation of the large intestine section (H&E staining) ([6]; FIG. 9): showed recovery of tissue damage

Structure (SMILES): CCCCCCCCC(O)CCCCCCCCC(=O)O (centres unmarked) [HYB, 10-hydroxyoctadecanoic acid]
- IL-8 production [1]: suppression of IL-8 production was observed
- mRNA expression of all TJ-associated factors (claudin-1, -3, -4, occludin, MLCK, ZO-1, ZO-2) in large intestine tissue ([3]; DSS mouse): did not show recovery from abnormal expression of all TJ-associated factors
- mRNA expression of IL-8 [5]: suppressed such increase in the expression

— US9539229B2, “Intestinal tract-protecting agent containing hydroxylated fatty acid” (KYOTO UNIVERSITY, priority 2013, dated 2017)
